# Source: patent publication US11028077B2, “Crystalline pharmaceutical and methods of preparation and use thereof” (NOVARTIS PHARMACEUTICALS CORPORATION, priority 2008, dated 2021)
# Like-named read-outs stand apart in the source and are kept apart here.
# Tests used:
# [1] = tested on: human mononuclear cells (PBMC) stimulated with staphylococcal enterotoxin B (SEB); assay: cells; assay type: cell-based
# [2] = tested on: attachment of Jurkat cells to ICAM-1; assay: T-cell adhesion assay using Jurkat cells; assay type: cell-based, human
# Description: A reported LFA-1 antagonist was used as the positive control.
# Jurkat cells were labeled with an 8 μM solution of BCECF-AM (2′,7′-bis-(2-carboxyethyl)-5-(and-6)-carboxyfluorescein) in growth media at room temperature for 15 minutes. […] Non-adherent cells were removed by washing and centrifugation at 100 g for 1 minute. Adherent cells were determined as adherent fluorescent units on a fluorescent plate reader.
# [3] = tested on: SEB stimulated IL-2 release in whole human blood; assay: cells; assay type: cell-based; settings: read-out: IC50, inhibition of SEB stimulated IL-2 release
# [4] = tested on: dogs (beagles); assay: Cardiovascular effects in conscious telemetry-instrumented dogs, IV bolus; assay type: in vivo, dog; settings: IV bolus injection
# [5] = tested on: rats; assay: CNS effects in rats, single bolus IV injection; assay type: in vivo, rat; settings: 10.0 mg/kg IV, 1 minute to 6 hours postdose, 2/6 animals at each time point
# Excerpt: No effect on any other parameters was observed.
# [6] = tested on: Chinese hamster ovary (CHO) cells; assay: In vitro chromosomal aberration assay in CHO cells; assay type: cell-based; settings: with and without metabolic activation; except single toxic dose 3500 μg/mL without activation
# Excerpt: The biological relevance of this response is equivocal due to cytotoxicity.
# [7] = tested on: CD-1 (ICR) BR mice; assay: In vivo mouse bone marrow micronucleus assay; settings: repeated IV administrations
# [8] = tested on: dogs; assay: Acute toxicity, escalating single dose IV and 7-day repeated dose with TK in dogs; assay type: in vivo, dog; settings: escalating single dose IV and 7-day repeated dose
# Description: 4. Acute Toxicity Studies: For single dose IV in rats, the no observable adverse effect level (NOAEL) was 10 mg/kg IV. For escalating single dose IV and 7-day repeated dose with TK (toxicokinetics) in dogs, the NOAEL was 10 mg/kg IV. For single dose ocular tolerance in rabbits, the NOAEL was 3.5 mg/eye/3× per day (10%).
# [9] = tested on: rabbits; assay: Single dose ocular tolerance in rabbits; assay type: in vivo, rabbit; settings: rabbits (10%)
# [10] = Plasma PK after single IV bolus dose in rats; assay type: in vivo, rat
# [11] = Skin transport studies on microtomed human skin; assay type: in vitro ADME; settings: 1% (w/w) prototypes; [^14C]-compound
# Excerpt: Prototypes have been developed and tested on microtomed human skin from elective surgery at 1% (w/w). The forms include gels, ointment, or lotion. […]
# [12] = rabbit, in vivo, topical or ocular, 0.35 mg
# [13] = tested on: dogs; assay: 13-week ocular toxicity study in dogs with 4-week recovery (toxicity and TK); settings: dogs (3%)
# [14] = single IV bolus 30.0 mg/kg, from rat safety pharmacology study
structure (smiles),measurement,setting,value
CS(=O)(=O)c1cccc(C[C@H](NC(=O)c2c(Cl)cc3c(c2Cl)CCN(C(=O)c2ccc4ccoc4c2)C3)C(=O)O)c1 [compound of Formula I],EC50,[1],≤ 0.15 µM
same,EC50,[1]; read-out: EC50 Cytokine Release GM-CSF,0.545 µM
same,EC50,[1]; read-out: EC50 Cytokine Release IFNγ,0.0016 µM
same,EC50,[1]; read-out: EC50 Cytokine Release IL-1α,0.24 µM
same,EC50,[1]; read-out: EC50 Cytokine Release IL-1β,0.36 µM
same,EC50,[1]; read-out: EC50 Cytokine Release IL-2,0.0018 µM
same,EC50,[1]; read-out: EC50 Cytokine Release IL-3,52.2 µM
same,EC50,[1]; read-out: EC50 Cytokine Release IL-4,0.143 µM
same,EC50,[1]; read-out: EC50 Cytokine Release IL-5,0.11 µM
same,EC50,[1]; read-out: EC50 Cytokine Release IL-6,43.5 µM
same,EC50,[1]; read-out: EC50 Cytokine Release IL-10,0.147 µM
same,EC50,[1]; read-out: EC50 Cytokine Release IL-12p40,> 1000 µM
same,EC50,[1]; read-out: EC50 Cytokine Release IL-13,0.36 µM
same,EC50,[1]; read-out: EC50 Cytokine Release IP-10,1.16 µM
same,EC50,[1]; read-out: EC50 Cytokine Release MCP-1,0.005 µM
same,EC50,[1]; read-out: EC50 Cytokine Release MIP-1α,0.02 µM
same,EC50,[1]; read-out: EC50 Cytokine Release TNF-α,0.076 µM
same,Jurkat cell attachment to ICAM-1,[2],inhibition of Jurkat cell attachment with increasing dose
same,dose response curve and IC50,"[2]; compared with positive control, a reported LFA-1 antagonist",comparable to that of the known direct competitive LFA-1 antagonist
same,IC50,[3],0.069 µM
same,effects on electrocardiography or hemodynamic parameters,[4],No effects on electrocardiography or hemodynamic parameters
same,CNS observation,[5],Transient miosis
same,induction of structural chromosomal aberrations,[6],negative for inducing structural chromosomal aberrations
same,micronuclei in polychromatic erythrocytes,[7],negative
same,NOAEL,[8],10 mg/kg
same,NOAEL,[9],3.5 mg/eye/3× per day
same,AUC0-n,[10]; single IV bolus 10.0 mg/kg,728 ng·h/mL
same,CL,[10]; single IV bolus 10.0 mg/kg,173 mL/min/kg
same,Cmax,[10]; single IV bolus 10.0 mg/kg,1056 ng/mL
same,MRT,[10]; single IV bolus 10.0 mg/kg,0.920 h
same,T1/2,[10]; single IV bolus 10.0 mg/kg,3.76 h
same,Vss,[10]; single IV bolus 10.0 mg/kg,9.56 L/kg
same,AUC0-n,[10]; [14],2345.5 ng·h/mL
same,Cmax,[10]; [14],5117.3 ng/mL
same,concentration in dermis,[11],greater than 10 micromolar
same,dose penetration,[11],2-4%
same,Mean tear AUC,[12],18931 ng·h/mL
same,NOAEL,[13],1.05 mg/eye/3× per day
